≈ marks a conversion by molar mass, not a printed value. Non-standard residues stand in square brackets, D forms with d. Residues, ends and D or L forms follow the SMILES beside them. *: point of attachment. NBD = O=[N+]([O-])c1ccc(*)c2nonc12; Dap = NC[C@H](N)C(=O)O

The values that follow come from PMC4398456, “Evidence for a Novel Mechanism of Antimicrobial Action of a Cyclic R-,W-Rich Hexapeptide” (PLoS ONE, 2015).

In experiment [1] the test system is E. coli. The experiment is described as follows: Peptide localisation by fluorescence microscopy (CLSM). It counts as cell-based. The note with it: 12 μM peptide, 30 minutes, LB-agarose pad; at least three independent experiments. Here is the method: Cells from an overnight culture were diluted 1:100 in fresh medium and grown to mid-log phase. LB-agarose pads were prepared by adding 1.5% agarose to LB medium and heated until the agarose was completely dissolved. In the case of translocation experiments the solution was slightly cooled down before peptides were added at a final concentration of 12 μM. 100 μl LB-agarose was applied to a cover slip and stored at 8°C in the dark for ~30 minutes. The hardened LB-pad was placed on top of 10 μl of bacterial culture (OD600 0.4) and live cell imaging was performed for up to 100 minutes in a heat controlled chamber to avoid desiccation.
Specific staining of CL with NAO has been shown before and is neither influenced by fixation nor depolarisation of the membrane. The emission shift from green to red fluorescence (513 nm to 640 nm) was reported to be exclusive for binding to CL and is caused by narrow stacking of dye molecules. Images were captured using a Zeiss Axiovert M200 inverted fluorescence microscope and an LSM 510 ConfoCor2 (Germany) with plan-apochromat 63, 100×/1.4 objective, respectively, and processed with ImageJ.

The test system of experiment [2] is B. subtilis. The description is as above. It counts as cell-based. The note with it: 12 μM peptide, 30 minutes, LB-agarose pad; at least three independent experiments.
In experiment [3] the test system is E. coli DH5α. The note with it: microdilution; reported before; cited from earlier work. A general note: Dilution methods test growth across graded concentrations, often in twofold steps.
In experiment [4] the test system is B. subtilis DSM 347. The note with it: microdilution; reported before; cited from earlier work.
Experiment [5] concerns B. subtilis L-170. The experiment is described as follows: HPLC uptake study with o-nitroaniline modification. It counts as cell-based. The note with it: 10^9 cells/ml DPBSG, 24 μM peptide, 30 min, 37°C; o-nitroaniline treatment; fluorescence HPLC; three independent experiments in triplicates. The text has this:
(§1) As the cytoplasmic membrane of bacteria has been identified as the target of cWFW, cell wall-deficient L-form strains derived from E. coli (LWF+) and B. subtilis (L-170) were used to quantify peptide uptake into the cytoplasm. The approach, originally developed for the investigation of peptide uptake into eukaryotic cells, is based on chemical modification of the amino group of lysine side chains with o-nitroaniline and fluorescence-based HPLC detection of non-modified and modified sequences. Fluorescence labelling was necessary for quantification of cyclic hexapeptide uptake.
(§2) Cells were cultivated to an OD550 ± 0.8 in conical flasks as described above. After harvesting and centrifugation at 2000 × g (Sigma 3K12, Germany) for 12 min and removal of culture medium, cells were washed twice with DPBSG (DPBS containing 1g/l glucose). […] Protein content was determined with BCA Protein Assay Kit (Thermo Scientific, Germany) according to manufacturer’s instructions. […]
(§3) HPLC analysis was performed as described before using a Jasco LC-2000 Plus (U.S.) with a ProntoSil 300-5-C18-H column (250 × 4.6 mm, 5 μm) (Bischoff Chromatography, Germany) and a precolumn with PolyenCap A300, 10 μm. Peptide amounts were quantified via calibration curves for carboxyfluorescein (ex 445 nm, em 520 nm, gain 1000) and NBD fluorescence (ex 470 nm, em 520 nm, gain 1000), respectively.

The test system of experiment [6] is E. coli L-WF+. Nature of the experiment: HPLC uptake study with o-nitroaniline modification. It counts as cell-based. The note with it: 10^9 cells/ml DPBSG, 24 μM peptide, 30 min, 37°C; o-nitroaniline treatment; fluorescence HPLC; three independent experiments in triplicates.
Text: as §1, §2, §3

For `N=C(N)NCCC[C@@H]1NC(=O)[C@H](CCCNC(=N)N)NC(=O)[C@H](Cc2c[nH]c3ccccc23)NC(=O)[C@H](CNc2ccc([N+](=O)[O-])c3nonc23)NC(=O)[C@H](Cc2c[nH]c3ccccc23)NC(=O)[C@H](CCCNC(=N)N)NC1=O` [cW[NBD]W] (cyclo(RRRW[Dap](NBD)W)), the “peptide localisation in live cells” value in experiment [1] and in experiment [2] was “not detectable within the cytoplasm” each time. Besides, the “MIC E. coli DH5α” value in experiment [3] was 50 µM (≈ 54.5 µg/mL). Moreover, in experiment [4], the “MIC B. subtilis DSM 347” value was 25 µM (≈ 27.3 µg/mL).

Turning to `N=C(N)NCCC[C@@H]1NC(=O)[C@H](CCCCN)NC(=O)[C@H](Cc2c[nH]c3ccccc23)NC(=O)[C@H](CNc2ccc([N+](=O)[O-])c3nonc23)NC(=O)[C@H](Cc2c[nH]c3ccccc23)NC(=O)[C@H](CCCCN)NC1=O` [cR2[NBD]] (cyclo(KRKW[Dap](NBD)W)), the “fraction of unmodified peptide, inaccessible for chemical modification, of the total cell-bound peptides” value is recorded as about 30% in experiment [5] and “about 20%” in experiment [6]. In addition, the “MIC E. coli DH5α” value in experiment [3] is 50 µM (≈ 51.7 µg/mL). In addition, in experiment [4], the “MIC B. subtilis DSM 347” value is 12 µM (≈ 12.4 µg/mL).
